Laboratory results from PubChem BioAssay AID258 (DTP/NCI, 2004).
“And” between values parts separate entries of the source, which are not always exact repeats. Equal entries are not always repeated. Inconclusive results and toxic doses are left out. Rule for the calls: active = survival T/C of 150% or more; inactive = T/C below 125% in these data.

System: CD2F1 mice, L1210 leukemia sc, survival T/C
Experiment: NCI In Vivo Anticancer Drug Screen. Data for tumor model L1210 Leukemia (subcutaneous) in CD2F1 (CDF1) mice
Details: endpoint: median survival time, higher = longer survival
Description: The antitumor activity of compounds was measured in mice bearing transplantable tumors. Survival or tumor size were measured and the results are expressed as the measurement made in the treated group (T) divided by the measurement made in the vehicle treated control group (C). The tumor model used in this assay is L1210 Leukemia (subcutaneous) in CD2F1 (CDF1) mice

[1] = dose: 50.0 mg/kg/injection, schedule: Q01DX009 (ip), vehicle: saline

Measured: T/C

Nc1n[nH]c2ccccc12
inactive: dose: 25.0 mg/kg/injection, schedule: Q01DX005 (ip), vehicle: acid diluted with saline 102 % of control | dose: 25.0 mg/kg/injection, schedule: Q01DX009 (ip), vehicle: acid diluted with saline 113 % of control | dose: 50.0 mg/kg/injection, schedule: Q01DX005 (ip), vehicle: acid diluted with saline 106 % of control | dose: 50.0 mg/kg/injection, schedule: Q01DX009 (ip), vehicle: acid diluted with saline 99 % of control | dose: 100.0 mg/kg/injection, schedule: Q01DX005 (ip), vehicle: acid diluted with saline 104 % of control | dose: 100.0 mg/kg/injection, schedule: Q01DX009 (ip), vehicle: acid diluted with saline 103 % of control | dose: 200.0 mg/kg/injection, schedule: Q01DX005 (ip), vehicle: acid diluted with saline 110 % of control

CCn1cnc2c(SC)ncnc21
inactive: dose: 65.0 mg/kg/injection, schedule: Q01DX Z (sc), vehicle: methylcellulose (MC) 100 % of control | dose: 108.0 mg/kg/injection, schedule: Q01DX Z (sc), vehicle: methylcellulose (MC) 100 % of control | dose: 180.0 mg/kg/injection, schedule: Q01DX Z (sc), vehicle: methylcellulose (MC) 100 % of control

CN(C)c1ccc(/C=C2\C=Cc3ccccc32)cc1
inactive: dose: 39.0 mg/kg/injection, schedule: Q01DX Z (sc), vehicle: carboxymethylcellulose (CMC) 100 % of control | dose: 65.0 mg/kg/injection, schedule: Q01DX Z (sc), vehicle: carboxymethylcellulose (CMC) 100 % of control | dose: 108.0 mg/kg/injection, schedule: Q01DX Z (sc), vehicle: carboxymethylcellulose (CMC) 100 % of control | dose: 180.0 mg/kg/injection, schedule: Q01DX Z (sc), vehicle: carboxymethylcellulose (CMC) 100 % of control | dose: 300.0 mg/kg/injection, schedule: Q01DX Z (sc), vehicle: carboxymethylcellulose (CMC) 100 % of control

O=C(O)CCCc1ccc(N(CCCl)CCCl)cc1
inactive: dose: 1.5 mg/kg/injection, schedule: Q01DX009 (ip), vehicle: saline with Tween-80 98 % of control | dose: 3.0 mg/kg/injection, schedule: Q01DX009 (ip), vehicle: saline with Tween-80 107 % of control | dose: 6.0 mg/kg/injection, schedule: Q01DX009 (ip), vehicle: saline with Tween-80 107 % of control | dose: 12.0 mg/kg/injection, schedule: Q01DX009 (ip), vehicle: saline with Tween-80 123 % of control

O=c1[nH]cc(F)c(=O)[nH]1
active: dose: 16.0 mg/kg/injection, schedule: Q01DX009 (sc), vehicle: saline 150 % of control | dose: 24.0 mg/kg/injection, schedule: Q01DX009 (ip), vehicle: saline 155 % of control | dose: 24.0 mg/kg/injection, schedule: Q01DX009 (sc), vehicle: saline 152 % of control and 168 % of control | dose: 26.7 mg/kg/injection, schedule: Q01DX009 (sc), vehicle: saline 152 % of control | dose: 40.0 mg/kg/injection, schedule: Q01DX009 (sc), vehicle: saline 151 % of control and 160 % of control | [1] 150 % of control | dose: 60.0 mg/kg/injection, schedule: Q01DX009 (sc), vehicle: saline 161 % of control | dose: 100.0 mg/kg/injection, schedule: Q02DX005 (ip), vehicle: saline 175 % of control | dose: 100.0 mg/kg/injection, schedule: Q04DX003 (ip), vehicle: saline 155 % of control
inactive: dose: 2.5 mg/kg/injection, schedule: Q01DX009 (ip), vehicle: saline 109 % of control and 94 % of control | dose: 5.0 mg/kg/injection, schedule: Q01DX009 (ip), vehicle: saline 101 % of control and 106 % of control | dose: 6.0 mg/kg/injection, schedule: Q01DX009 (ip), vehicle: saline 111 % of control | dose: 6.0 mg/kg/injection, schedule: Q01DX009 (sc), vehicle: saline 110 % of control | dose: 6.25 mg/kg/injection, schedule: Q01DX009 (ip), vehicle: saline 93 % of control | dose: 10.0 mg/kg/injection, schedule: Q01DX009 (ip), vehicle: saline 108 % of control and 114 % of control and 117 % of control | dose: 10.0 mg/kg/injection, schedule: Q01DX009 (sc), vehicle: saline 102 % of control | dose: 12.5 mg/kg/injection, schedule: Q01DX006 (ip), vehicle: saline 105 % of control | dose: 12.5 mg/kg/injection, schedule: Q01DX009 (ip), vehicle: saline 112 % of control | dose: 12.5 mg/kg/injection, schedule: Q02DX005 (ip), vehicle: saline 111 % of control | dose: 20.0 mg/kg/injection, schedule: Q01DX009 (sc), vehicle: saline 118 % of control | dose: 25.0 mg/kg/injection, schedule: Q02DX005 (ip), vehicle: saline 112 % of control | dose: 25.0 mg/kg/injection, schedule: Q04DX003 (ip), vehicle: saline 100 % of control | dose: 40.0 mg/kg/injection, schedule: Q01DX009 (ip), vehicle: saline 104 % of control and 114 % of control and 94 % of control | dose: 48.0 mg/kg/injection, schedule: Q01DX009 (ip), vehicle: saline 102 % of control | dose: 48.0 mg/kg/injection, schedule: Q01DX009 (sc), vehicle: saline 117 % of control | dose: 50.0 mg/kg/injection, schedule: Q01DX001 (ip), vehicle: saline 111 % of control | dose: 50.0 mg/kg/injection, schedule: Q04DX003 (ip), vehicle: saline 100 % of control | dose: 65.0 mg/kg/injection, schedule: Q01DX Z (sc), vehicle: saline 112 % of control | dose: 80.0 mg/kg/injection, schedule: Q01DX009 (ip), vehicle: saline 103 % of control | dose: 96.0 mg/kg/injection, schedule: Q01DX009 (ip), vehicle: saline 91 % of control | dose: 96.0 mg/kg/injection, schedule: Q01DX009 (sc), vehicle: saline 88 % of control | dose: 100.0 mg/kg/injection, schedule: Q01DX001 (ip), vehicle: saline 122 % of control | dose: 108.0 mg/kg/injection, schedule: Q01DX Z (sc), vehicle: saline 112 % of control | dose: 180.0 mg/kg/injection, schedule: Q01DX Z (sc), vehicle: saline 108 % of control | dose: 400.0 mg/kg/injection, schedule: Q01DX001 (ip), vehicle: saline 122 % of control

NS(=O)(=O)OCCCCCCCOS(N)(=O)=O
active: dose: 83.3 mg/kg/injection, schedule: Q01DX009 (ip), vehicle: saline with Tween-80 179 % of control
inactive: dose: 30.0 mg/kg/injection, schedule: Q01DX009 (ip), vehicle: saline with Tween-80 124 % of control | dose: 138.8 mg/kg/injection, schedule: Q01DX009 (ip), vehicle: saline with Tween-80 118 % of control

CC(=O)NNC(=O)c1ccccn1
inactive: dose: 12.5 mg/kg/injection, schedule: Q01DX009 (ip), vehicle: Klucel (hydroxypropylcellulose) (HPC) 102 % of control | dose: 25.0 mg/kg/injection, schedule: Q01DX009 (ip), vehicle: Klucel (hydroxypropylcellulose) (HPC) 102 % of control | dose: 25.0 mg/kg/injection, schedule: Q01DX009 (ip), vehicle: saline 102 % of control | dose: 25.0 mg/kg/injection, schedule: Q01DX009 (sc), vehicle: saline 98 % of control | dose: 50.0 mg/kg/injection, schedule: Q01DX009 (ip), vehicle: Klucel (hydroxypropylcellulose) (HPC) 105 % of control | [1] 104 % of control | dose: 50.0 mg/kg/injection, schedule: Q01DX009 (sc), vehicle: saline 105 % of control and 109 % of control | dose: 100.0 mg/kg/injection, schedule: Q01DX009 (ip), vehicle: Klucel (hydroxypropylcellulose) (HPC) 113 % of control | dose: 100.0 mg/kg/injection, schedule: Q01DX009 (ip), vehicle: saline 106 % of control | dose: 100.0 mg/kg/injection, schedule: Q01DX009 (sc), vehicle: saline 110 % of control and 113 % of control | dose: 200.0 mg/kg/injection, schedule: Q01DX009 (ip), vehicle: Klucel (hydroxypropylcellulose) (HPC) 112 % of control | dose: 200.0 mg/kg/injection, schedule: Q01DX009 (ip), vehicle: saline 114 % of control | dose: 200.0 mg/kg/injection, schedule: Q01DX009 (sc), vehicle: saline 111 % of control and 119 % of control

O=NN(CCCl)C(=O)NC12CC3CC(CC(C3)C1)C2
inactive: dose: 6.25 mg/kg/injection, schedule: Q01DX Z (sc), vehicle: carboxymethylcellulose (CMC) 100 % of control | dose: 12.5 mg/kg/injection, schedule: Q01DX Z (sc), vehicle: carboxymethylcellulose (CMC) 100 % of control | dose: 25.0 mg/kg/injection, schedule: Q01DX Z (sc), vehicle: carboxymethylcellulose (CMC) 110 % of control
active: dose: 50.0 mg/kg/injection, schedule: Q01DX Z (sc), vehicle: carboxymethylcellulose (CMC) 325 % of control | dose: 100.0 mg/kg/injection, schedule: Q01DX Z (sc), vehicle: carboxymethylcellulose (CMC) 240 % of control

Nc1nc(=S)c2[nH]cnc2[nH]1
active: dose: 2.16 mg/kg/injection, schedule: Q01DX Z (sc), vehicle: other 177 % of control | dose: 3.6 mg/kg/injection, schedule: Q01DX Z (sc), vehicle: other 177 % of control | dose: 6.0 mg/kg/injection, schedule: Q01DX Z (sc), vehicle: other 177 % of control | dose: 10.1 mg/kg/injection, schedule: Q01DX Z (sc), vehicle: other 166 % of control | dose: 16.9 mg/kg/injection, schedule: Q01DX Z (sc), vehicle: other 161 % of control
